Data as given in US10322110B2, “Imidazole-based antimicrobial agents” (priority 2014, dated 2019).
In brackets after ≈: the same amount, converted by molar mass. Read-outs that look alike come from different tables or passages of the source.

Assays:
[1] = system: Mycobacterium smegmatis (mc(2)155, ATCC700084); experiment: broth microdilution MIC assay, Mycobacterium smegmatis; settings: MIC activity class
[2] = system: Staphylococcus aureus MSSA (Newman); experiment: broth microdilution MIC assay, Staphylococcus aureus MSSA (Newman); type: cell-based; settings: for MIC: Staphylococcus aureus; for Antibacterial activity Staphylococcus aureus (MSSA): MIC100 class score, broth microdilution
[3] = system: Bacillus subtilis (Marburg strain, ATCC6051); experiment: microbe, parasite or virus in culture; type: cell-based; settings: ATCC6051, read-out: Antibacterial activity BS (Bacillus substilis)
[4] = system: Human hepatocytes (HepaRG cells); experiment: human cytotoxicity assay in vitro (CellTiter-Glo), hepatocytes; type: cell-based; settings: cytotoxicity class
[5] = system: penicillin-, erythromycin- and tetracycline-resistant Streptococcus pneumoniae (ATCC 700677), ARSP; experiment: microbe, parasite or virus in culture; type: cell-based
[6] = system: Staphylococcus aureus MRSA (COL); experiment: broth microdilution MIC assay, Staphylococcus aureus MRSA (COL); type: cell-based; settings: for MIC: Staphylococcus aureus, MRSA
[7] = system: Staphylococcus epidermidis (PCI 1200, ATCC12228); experiment: broth microdilution MIC assay, Staphylococcus epidermidis; type: cell-based; settings: ATCC12228, read-out: Antibacterial activity SE (Staphylococcus epidermidis)
[8] = system: Streptococcus pneumoniae (Chester, ATCC49619); experiment: broth microdilution MIC assay, Streptococcus pneumoniae; type: cell-based; settings: MIC100 class score, 24 h
[9] = 24 h, read-out: Antibacterial activity Staphylococcus aureus (MSSA)
[10] = read-out: Antibacterial activity MSSA (Staphylococcus aureus MSSA)
[11] = ATCC700677, MIC activity class, read-out: Antibacterial activity ARSP (multi-drug resistant-SP)
[12] = read-out: Antibacterial activity MRSA (Staphylococcus aureus MRSA)
[13] = ATCC700677, read-out: Antibacterial activity ARSP (multi-drug resistant-SP)

| Compound | Antibacterial activity MS (Mycobacterium smegmatis) [1] | MIC [2, 9] [µg/mL] | MIC [2, 10] [µg/mL] | MIC [3] [µg/mL] | cytotoxicity cell line H (hepatocytes) [4] | MIC [5, 11] [µg/mL] | MIC [6, 12] [µg/mL] | MIC ([6]; MIC100 class score, broth microdilution, 24 h, read-out: Antibacterial activity Staphylococcus aureus (MRSA)) [µg/mL] | MIC [7] [µg/mL] | Antibacterial activity Streptococcus pneumoniae [8] | MIC [5, 13] [µg/mL] | MIC ([6]; 24 h, read-out: Antibacterial activity Staphylococcus aureus (MRSA)) [µg/mL] | Antibacterial activity Staphylococcus aureus (MSSA) ([2]; 24 h) | Antibacterial activity Staphylococcus aureus (MRSA) ([6]; MIC100 class score, broth microdilution, 24 h) |
| --- | --- | --- | --- | --- | --- | --- | --- | --- | --- | --- | --- | --- | --- | --- |
| Cc1nc(-c2ccc(-c3ccc(Cl)cc3Cl)o2)[nH]c1-c1ccccc1 [Compound 1] | 2 (MIC100 of 11-201 μg/ml) | 1 to 3 (≈ 2.71 to 8.12 µM) | 1 to 3 (≈ 2.71 to 8.12 µM) | 3 to 10 (≈ 8.12 to 27.1 µM) | 2 | < 1 | 1 to 3 (≈ 2.71 to 8.12 µM) | 1 to 3 (≈ 2.71 to 8.12 µM) | 3 to 10 (≈ 8.12 to 27.1 µM) |  |  |  |  |  |
| Cc1[nH]c(-c2ccc(-c3ccc(Cl)cc3)s2)nc1-c1ccccc1 [Compound 6] | 2 (MIC100 of 11-201 μg/ml) |  |  | 11 to 201 (≈ 31.4 to 573 µM) |  | 2 to 5 (≈ 5.7 to 14.3 µM) |  |  |  | 3 (MIC100 of 2-5 μg/ml) |  |  |  |  |
| Cc1[nH]c(-c2ccc(-c3ccccc3F)s2)nc1-c1ccccc1 [Compound 15] | 2 (MIC100 of 11-201 μg/ml) |  |  |  |  |  |  |  |  | 3 (MIC100 of 2-5 μg/ml) | 2 to 5 (≈ 5.98 to 15 µM) |  |  |  |
| Cc1nc(-c2ccc(-c3ccc(Cl)cc3Cl)o2)[nH]c1-c1ccc(F)cc1 [Compound 16] |  |  | 1 to 3 (≈ 2.58 to 7.75 µM) | 3 to 10 (≈ 7.75 to 25.8 µM) | 3 | < 1 | 1 to 3 (≈ 2.58 to 7.75 µM) |  | 3 to 10 (≈ 7.75 to 25.8 µM) | 3 (MIC100 of 2-5 μg/ml) |  |  |  |  |
| Cc1[nH]c(-c2ccc(-c3ccccc3OC(F)(F)F)o2)nc1-c1ccccc1 [Compound 18] |  | 1 to 3 (≈ 2.6 to 7.81 µM) | 1 to 3 (≈ 2.6 to 7.81 µM) | 1 to 3 (≈ 2.6 to 7.81 µM) | 2 | < 1 | 3 to 10 (≈ 7.81 to 26 µM) |  | 3 to 10 (≈ 7.81 to 26 µM) |  |  | 3 to 10 (≈ 7.81 to 26 µM) |  |  |
| Cc1nc(-c2ccc(-c3ccccc3OC(F)(F)F)o2)[nH]c1-c1ccccc1Cl [Compound 19] | 2 (MIC100 of 11-201 μg/ml) |  | 20 to 50 (≈ 47.8 to 119 µM) |  | 3 |  | 20 to 50 (≈ 47.8 to 119 µM) |  |  |  | 2 to 5 (≈ 4.78 to 11.9 µM) |  |  |  |
| Cc1nc(-c2ccc(-c3ccccc3OC(F)(F)F)o2)[nH]c1-c1cccc(Cl)c1 [Compound 21] |  |  | 1 to 3 (≈ 2.39 to 7.16 µM) | 3 to 10 (≈ 7.16 to 23.9 µM) | 3 | < 1 |  |  | 20 to 50 (≈ 47.8 to 119 µM) |  |  |  | 3 (MIC100 of 3-10 μg/ml) | 3 (MIC100 of 3-10 μg/ml) |
| Cc1[nH]c(-c2ccc(-c3ccccc3OC(F)(F)F)o2)nc1-c1ccc(F)cc1 [Compound 23, 4-(4-Fluoro-phenyl)-5-methyl-2-[5-(2-trifluoromethoxy-phenyl)-furan-2-yl]-1H-imidazole] |  |  | 1 to 3 (≈ 2.49 to 7.46 µM) | 1 to 3 (≈ 2.49 to 7.46 µM) | 3 | < 1 | 3 to 10 (≈ 7.46 to 24.9 µM) |  | 20 to 50 (≈ 49.7 to 124 µM) |  |  |  | 3 (MIC100 of 3-10 μg/ml) |  |
| Cc1[nH]c(-c2ccc(-c3ccccc3OC(F)(F)F)o2)nc1-c1ccc(Cl)cc1 [Compound 24] |  |  | 3 to 10 (≈ 7.16 to 23.9 µM) | 3 to 10 (≈ 7.16 to 23.9 µM) | 2 | < 1 | 3 to 10 (≈ 7.16 to 23.9 µM) |  | 20 to 50 (≈ 47.8 to 119 µM) |  |  |  | 3 (MIC100 of 3-10 μg/ml) |  |
| Cc1[nH]c(-c2ccc(-c3ccccc3OC(F)(F)F)o2)nc1Cc1ccc(Br)cc1 [Compound 30, 4-(4-Bromo-benzyl)-5-methyl-2-[5-(2-trifluoromethoxy-phenyl)-furan-2-yl]-1H-imidazole] |  |  | 3 to 10 (≈ 6.29 to 21 µM) | 3 to 10 (≈ 6.29 to 21 µM) | 3 | < 1 | 3 to 10 (≈ 6.29 to 21 µM) |  | 11 to 201 (≈ 23 to 421 µM) |  |  |  | 3 (MIC100 of 3-10 μg/ml) |  |
